Reference: PMC8568133, “Evaluation of bisphenylthiazoles as a promising class for combating multidrug-resistant fungal infections” (PLoS ONE, 2021)
Converted amounts (≈) assume the structure as drawn.

Assays:
Candida albicans = assay: Antifungal broth microdilution MIC (50% growth inhibition) and MFC; format: cell-based; details: Candida albicans, C. albicans SS5314 (wild-type); read-out: MIC
Description: Serial dilutions (from 128 μg/mL to 0.06 μg/mL) of the tested compounds and control drugs (fluconazole, itraconazole and amphotericin) (in triplicates), were screened against clinical isolates of Candida albicans, Candida auris, Candida glabrata, Candida parapsilosis, Candida tropicalis, Candida krusei, Cryptococcus neoformans, Cryptococcus gattii and Aspergillus fumigatus species using the broth microdilution method according to the Clinical and Laboratory Standards Institute guidelines. MICs were determined as the lowest concentration of the compounds that inhibited the fungal growth by 50% after incubation at 35 °C for 24 h (for Candida and Aspergillus), or 48 h (for Cryptococcus). The minimum fungicidal concentration (MFC) of these compounds was tested by plating 4 μL from wells with no growth onto YPD agar plates. The plates were incubated at 37 °C for 24 hours before recording the MFC, which was categorized as the lowest concentration that reduced fungal growth by 99.9% [45]. The experiment was repeated three independent times.

[1] = system: E. coli JW55031 (tolC-mutant); assay: microbe, parasite or virus in culture; format: cell-based, Escherichia coli; details: Escherichia coli
Description: (§1) The minimum inhibitory concentrations (MICs) of the tested compounds and control drugs against clinically-relevant bacterial strains were determined using the broth microdilution method, according to guidelines outlined by the Clinical and Laboratory Standards Institute (CLSI), or as described previously.
(§2) Initial screening of the bisphenylthiazoles against Gram-positive and Gram-negative bacteria. Bacterial strains, (except C. difficile that was grown anaerobically on brain heart infusion supplemented agar at 37° C for 48 hours), were grown aerobically overnight on tryptone soy agar plates at 37° C. Afterwards, a bacterial solution equivalent to 0.5 McFarland standard was prepared and diluted in cation-adjusted Mueller-Hinton broth (CAMHB) (for S. aureus, and E. coli) to achieve a bacterial concentration of about 5 × 10^5 CFU/mL. C. difficile was diluted in brain heart infusion supplemented broth, supplemented with yeast extract, hemin and vitamin K to achieve a bacterial concentration of about 5 × 10^5 CFU/mL. Compounds and control drugs were added in the first row of the 96 -well plates, and serially diluted with the corresponding media containing bacteria. Plates were then, incubated aerobi cally at 37° C for 18-20 hours (for S. aureus and E. coli). C. difficile was incubated anaerobically at 37° C for 48 hours. […]
(§3) the visual growth of bacteria.

MRSA USA300 = assay: Broth microdilution MIC, initial antibacterial screening; format: cell-based, S. aureus; details: Staphylococcus aureus; MRSA USA300; read-out: MIC
Description: as §1, §2, §3

[2] = system: E. coli BW25113 (wild-type); assay: as above; format: cell-based, Escherichia coli; details: Escherichia coli, read-out: MIC
Description: as §1, §2, §3

[3] = system: C. difficile ATCC BAA1870; assay: Broth microdilution MIC, initial antibacterial screening (anaerobic); format: cell-based, Clostridioides difficile; details: Clostridioides difficile, ATCCBAA1870, read-out: MIC
Description: as §1, §2, §3

SMILES | MIC (Candida albicans) | MIC [1] | MIC (MRSA USA300) | MIC [2] | MIC [3] | melting point
Cc1nc(-c2ccc(-c3ccccc3)cc2)sc1-c1nnc(N[C@H]2CC[C@H](N)CC2)o1 [Compound 18, trans-N-{5-[2-((1,1’-Biphenyl)-4-yl)-4-methylthiazol-5-yl]-1,3,4-oxadiazol-2-yl}cyclo-hexane-1,4-diamine] | 16 µg/mL (≈ 37.1 µM) | 32 µg/mL (≈ 74.1 µM) | 32 µg/mL (≈ 74.1 µM) | > 64 µg/mL | 8 µg/mL (≈ 18.5 µM) | 260 to 263 °C
Cc1nc(-c2ccc(-c3ccccc3)cc2)sc1-c1nnc(NCCO)o1 [Compound 19, 2-{[5-(2-((1,1’-Biphenyl)-4-yl)-4-methylthiazol-5-yl)-1,3,4-oxadiazol-2-yl]amino} ethan-1-ol] | > 64 µg/mL | > 64 µg/mL | > 64 µg/mL | > 64 µg/mL | 64 µg/mL (≈ 169 µM) | 210 to 213 °C
